Biological target: T1, GST-Met 248 PDE 4a (Homo sapiens, UniProt P27815)
T1 construct: human recombinant phosphodiesterase IVa (met-248); made in house; host or cells: baculovirus/Sf-9 insect cells
Assay: SPA based PDE Activity Assay (hydrolysis of cAMP to AMP)
Type: biochemical
Conditions: 100 nM cAMP; purified GST fusion protein of human recombinant phosphodiesterase IVa (met-248), baculovirus/Sf-9; 30° C., 10 min
Protocol: SPA based PDE Activity Assay Protocol
Compounds which inhibit the hydrolysis of cAMP to AMP by the type-IV cAMP-specific phosphodiesterases were screened in 96-well plate format as follows:
In a 96 well-plate at 30° C. was added the test compound (dissolved in 2 μl DMSO), […] of substrate buffer containing [2,8-^3 H] adenosine 3',5'-cyclic phosphate (cAMP, 100 nM to 50 μM), 10 mM MgCl2, 1 mM EDTA, 50 mM Tris, pH 7.5. The reaction was initiated by the addition of […] of human recombinant PDE-IV (the amount was controlled so that ~10% product was formed in 10 min.). The reaction was stopped after 10 min. by the addition of 1 mg of PDE-SPA beads (Amersham). The product AMP generated was quantified on a Microbeta 96-well plate counter. The signal in the absence of enzyme was defined as the background. 100% activity was defined as the signal detected in the presence of enzyme and DMSO with the background subtracted. Percentage of inhibition was calculated accordingly. IC50 value was approximated with a non-linear regression fit using the standard 4-parameter/multiple binding sites equation from a ten point titration.
IC50 values shown in Table 7 were determined with 100 nM cAMP using the purified GST fusion protein of the human recombinant phosphodiesterase IVa (met-248) produced from a baculovirus/Sf-9 expression system.

T1 sequence (P27815 248-886 limits assumed): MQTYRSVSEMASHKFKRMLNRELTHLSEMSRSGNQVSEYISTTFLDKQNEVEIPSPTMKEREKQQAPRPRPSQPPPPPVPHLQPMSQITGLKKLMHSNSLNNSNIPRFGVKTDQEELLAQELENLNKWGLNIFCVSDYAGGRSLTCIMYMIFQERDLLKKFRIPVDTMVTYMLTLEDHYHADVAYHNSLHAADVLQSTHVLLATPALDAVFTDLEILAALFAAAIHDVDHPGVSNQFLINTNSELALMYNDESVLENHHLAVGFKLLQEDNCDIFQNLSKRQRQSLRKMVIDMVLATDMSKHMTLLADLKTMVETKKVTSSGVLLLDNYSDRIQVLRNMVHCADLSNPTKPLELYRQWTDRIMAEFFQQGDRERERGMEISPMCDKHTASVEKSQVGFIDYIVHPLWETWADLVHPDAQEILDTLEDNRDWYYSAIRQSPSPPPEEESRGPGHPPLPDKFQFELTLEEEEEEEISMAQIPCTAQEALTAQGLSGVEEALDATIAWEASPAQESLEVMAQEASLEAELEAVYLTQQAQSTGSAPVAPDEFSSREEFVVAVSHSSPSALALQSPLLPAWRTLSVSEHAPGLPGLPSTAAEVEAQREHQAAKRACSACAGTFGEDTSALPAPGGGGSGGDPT

SMILES: NS(=O)(=O)c1cccc(Sc2ccc(C(Cc3ccncc3)c3ccc(OC(F)F)c(OC(F)F)c3)cn2)c1 (centres unmarked) [Example 1, 4-{2-[3,4-Bis(difluoromethoxy)phenyl]-2-{6-[3-(aminosulfonyl)benzenethiol]3-pyridyl}ethyl}pyridine]
- IC50: 5.45 nM

SMILES: O=[N+]([O-])c1ccc(S(=O)(=O)c2ccc(C(Cc3cc[n+]([O-])cc3)c3ccc(OC(F)F)c(OC(F)F)c3)cn2)cc1 (centres unmarked) [Example 4, 4-{2-[3,4-Bis(difluoromethoxy)phenyl]-2-[6-(4-nitrobenzenesulfonyl)3-pyridyl]ethyl}pyridine-N-oxide]
- IC50: 21.2 nM

Reference: patent US6316472A, “Heterosubstituted pyridine derivatives as PDE 4 inhibitors” (Merck Frosst Canada & Co., priority 2000, dated 2001)
